# Experimental data as given in patent US20240398756A1, “DRUG FOR REDUCING BLOOD GLUCOSE AND/OR TREATING DIABETIC COMPLICATIONS” (SICHUAN UNIVERSITY, priority 2022, published 2024).
# Where a name gives a salt, the structure may show the parent alone.
# How the values were obtained:
# [1] = tested on: C57BL/KsJ db/db mice; experiment: Serum insulin content and insulin resistance index in db/db diabetic mice; format: in vivo; conditions: gavage, end of 1 month treatment, nanoparticles 100 mg/kg every 3 days, LA monomer 100 mg/kg and metformin 120 mg/kg daily
# Text: 8-week male C57BL/KsJ db/db mice, SPF grade, provided by Jiangsu GemPharmatech Co. Ltd., Changzhou Branch, certificate number: 202012449, with an initial weight of 44±2 g, underwent adaptive feeding for one week. A total of 24 C57BL/KsJ db/db mice were randomly divided into 4 groups according to body weight and blood glucose, with 6 mice in each group. […] There were 6 littermate w/w male mice of the same week age as the solvent control group. […] After administration of a single dose, the blood glucose changes of mice were continuously monitored for 3 days. During the 1-month treatment cycle, the blood glucose changes of the mice were detected every 3 days. […] The mice were killed by enucleation and bloodletting, serum samples were collected by centrifugation at room temperature, the serum insulin content was detected by mouse insulin ELISA detection kit, and the insulin resistance index was calculated, and the percentage of the drug to reduce the serum insulin content and insulin resistance index was calculated based on the difference between the model and the normal control group. The results of the quantitative experiment were expressed as mean±variance (x±s). SPSS version19.0 Statistical Software (Chicago, IL, USA) was used to compare the differences between groups using one-way analysis of variance. When the difference was significant (P<0.05), the Turkey post hoc method was used for pairwise comparison, and when P<0.05, the difference was considered statistically significant.
# [2] = intravenous injection, human body; cited from earlier work
# [3] = tested on: C57BL/KsJ db/db mice; experiment: Blood glucose in db/db diabetic peripheral neuropathy mice (Embodiment 8); format: in vivo; conditions: 50 mg/kg i.p. three times a week, 8 weeks
# Protocol: (§1) Eighteen 16-week male C57BL/KsJ db/db mice, SPF grade, provided by Jiangsu GemPharmatech Co. Ltd., Changzhou Branch. […] The littermate w/w male mice of the same age were selected as the control group. The heat pain threshold was measured in all mice before administration to determine DPN symptoms. […] The control group and the db/db model group were intraperitoneally injected with an equal volume of saline. During the treatment period, blood glucose changes in mice were monitored every three days to determine the hypoglycemic effect of the drug. At the end of the 8th week, the heat pain threshold was detected. Mice were sacrificed to detect related factors through detection kits.
# [4] = tested on: C57BL/KsJ db/db mice; experiment: Serum CRE, BUN and UACR in diabetic nephropathy mice; format: in vivo; conditions: 30 mg/kg i.p. once a day, four weeks
# Protocol: (§2) 10-week male C57BL/KsJ db/db mice, SPF grade, provided by Jiangsu GemPharmatech Co. Ltd., Changzhou Branch, certificate number: 202012449, with an initial weight of 44±2 g, underwent adaptive feeding for two weeks. […] There were 6 littermate w/w male mice of the same week age as the solvent control group. Different doses were given by intraperitoneal injection at 10 mL/kg volume once a day for four weeks, respectively, and equal volumes of normal saline were given by intraperitoneal injection in the control and model groups. During the treatment cycle, the blood glucose changes in mice were detected every three days, and the percentages of blood glucose reduced by the drugs were calculated based on the difference between the blood glucose of the model and the normal control group, so as to clarify the hypoglycemic effect of the drugs.
# [5] = tested on: C57BL/KsJ db/db mice; experiment: Transcript levels of TNF-α, IL-1β and IL-6 genes in kidney tissues; format: in vivo; conditions: 30 mg/kg i.p. once a day, 4 weeks
# Protocol: as §2
# [6] = tested on: C57BL/KsJ db/db mice; experiment: SOD activity and MDA, GSH contents in sciatic nerve; format: in vivo; conditions: 50 mg/kg i.p. three times a week, 8 weeks
# Protocol: as §1
# (§3) At the end of the experiment, mice were sacrificed and sciatic nerve cells were isolated. In order to determine the contents of MDA, GSH, SOD, TNF-α, IL-6 and IL-1β in the sciatic nerve, the sciatic nerve was first cut into fragments (100 mg: 1800 μL) with small scissors in normal saline and homogenized with Beed Ruptor 24 Elite. Then, the homogenate was centrifuged at 4° C. and 3500 rpm for 15 min, and the supernatant was collected for use. Then, commercial kits were used to determine the activity of SOD and the contents of MDA, GSH, TNF-α, IL-6 and IL-1β in sciatic nerve homogenate.
# [7] = tested on: C57BL/KsJ db/db mice; experiment: MDA content and SOD activity in kidney tissues; format: in vivo; conditions: 30 mg/kg i.p. once a day, 4 weeks
# Protocol: as §2
# [8] = tested on: C57BL/KsJ db/db mice; experiment: Kidney tissue pathology (HE, PAS, TEM) in diabetic nephropathy mice; format: in vivo; conditions: 30 mg/kg i.p. once a day, four weeks
# Protocol: as §2
# [9] = tested on: C57BL/KsJ db/db mice; experiment: Blood glucose in db/db type 2 diabetes mice (Embodiment 4); format: in vivo; conditions: gavage; for reduction of blood glucose contents: 1 month, nanoparticles 100 mg/kg once every 3 days, LA monomer 100 mg/kg and metformin 120 mg/kg once a day, relative to model-normal control difference
# Protocol: A total of 24 C57BL/KsJ db/db mice were randomly divided into 4 groups according to body weight and blood glucose, with 6 mice in each group. […] There were 6 littermate w/w male mice of the same week age as the solvent control group. […] After administration of a single dose, the blood glucose changes of mice were continuously monitored for 3 days. During the 1-month treatment cycle, the blood glucose changes of the mice were detected every 3 days. On the 30th day, 2 h after the end of administration, the blood glucose of mice was measured, and the percentage of blood glucose reduced by the drug was calculated based on the difference between the blood glucose of the model and the normal control group. The mice were killed by enucleation and bloodletting, serum samples were collected by centrifugation at room temperature, the serum insulin content was detected by mouse insulin ELISA detection kit, and the insulin resistance index was calculated, and the percentage of the drug to reduce the serum insulin content and insulin resistance index was calculated based on the difference between the model and the normal control group.
# The results of the quantitative experiment were expressed as mean±variance (x±s). SPSS version19.0 Statistical Software (Chicago, IL, USA) was used to compare the differences between groups using one-way analysis of variance. When the difference was significant (P<0.05), the Turkey post hoc method was used for pairwise comparison, and when P<0.05, the difference was considered statistically significant.
# [10] = tested on: C57BL/KsJ db/db mice; experiment: Blood glucose in db/db diabetic nephropathy mice (Embodiment 6); format: in vivo; conditions: 30 mg/kg intraperitoneal once a day, four weeks
# Protocol: as §2, with “drugs. […] The results of the quantitative experiment were expressed as mean±variance (x±s). SPSS version19.0 Statistical Software (Chicago, IL, USA) was used to compare the differences between groups using one-way analysis of variance. When the difference was significant (P<0.05), the Turkey post hoc method was used for pairwise comparison, and when P<0.05, the difference was considered statistically significant.” for “drugs.”
# [11] = tested on: C57BL/KsJ db/db mice; experiment: TNF-α, IL-1β and IL-6 contents in sciatic nerve; format: in vivo; conditions: 50 mg/kg i.p. three times a week, 8 weeks
# Protocol: as §1, §3
# [12] = tested on: C57BL/KsJ db/db mice; experiment: Na+-K+-ATPase activity in red blood cells and sciatic nerve; format: in vivo; conditions: 50 mg/kg i.p. three times a week, 8 weeks
# Protocol: as §1
# After 8 weeks treatment, all mice were sacrificed and the sciatic nerve was isolated. In order to determine the activity of Na^+—K^+-ATPase in red blood cells and sciatic nerve of mice, 10 μL whole blood was collected and added into 240 μL distilled water for mixing, and the activity of Na^+—K^+-ATPase was determined immediately. The sciatic nerve tissue of mice was collected. First, the sciatic nerve was cut into fragments (100 mg: 1800 μL) with small scissors in normal saline and homogenized with Beed Ruptor 24 Elite. Then, the homogenate was centrifuged at 4° C. and 3500 rpm for 15 min, and the supernatant was collected for use.
structure (smiles),measurement,setting,value
"O=C(O)CCCCC1CCSS1 (centres unmarked) [LA monomer, lipoic acid]",decrease of serum insulin content,[1],no significant difference
same,fraction passing through the glomerulus into the renal tubules and excreted in the urine,[2],80-90%
same,hypoglycemic effect (in words),[3],no hypoglycemic effect
same,decrease of BUN content vs db/db model group,[4],25.45%
same,decrease of UACR level vs db/db model group,[4],24.75%
same,decrease of serum CRE vs db/db model group,[4],21.05%
same,reduction of IL-1β transcript level in kidney,[5],18.18%
same,reduction of IL-6 transcript level in kidney,[5],23.33%
same,reduction of TNF-α transcript level in kidney,[5],22.5%
same,decrease of MDA content in sciatic nerve,[6],30.79%
same,increase of GSH content in sciatic nerve,[6],10.79
same,increase of SOD activity in sciatic nerve,[6],15.76%
same,increase of SOD activity in kidney tissues,[7],55%
same,reduction of MDA content in kidney tissues,[7],9.8%
same,decrease of basement membrane thickness vs db/db model group,[8],6.57%
same,increase of number of foot processes vs db/db model group,[8],10.14%
same,shrinkage of glomeruli vs db/db model group,[8],25.50%
same,reduction of blood glucose contents,[9],no hypoglycemic effect
same,blood glucose levels versus model group after a single dose,"[9]; single dose 100 mg/kg, monitored 3 days",no significant difference
same,reduction of blood glucose content,[10],no hypoglycemic effect
same,decrease of IL-1β level in sciatic nerve tissue vs db/db mice,[11],27.46%
same,decrease of IL-6 level in sciatic nerve tissue vs db/db mice,[11],38.42%
same,decrease of TNF-α level in sciatic nerve tissue vs db/db mice,[11],34.42%
same,increase of Na+-K+-ATPase activity in sciatic nerve vs db/db mice,[12],120%
same,increase of Na+-K+-ATPase activity of red blood cells vs db/db mice,[12],137%
"CN(C)C(=N)N=C(N)N [metformin, metformin hydrochloride]",decrease of insulin resistance index,[1],53.68%
same,decrease of serum insulin content,[1],34.69%
same,reduction of blood glucose contents,[9],50.28%
same,duration of hypoglycemic effect after a single dose,"[9]; single dose, nanoparticles 100 mg/kg, metformin 120 mg/kg",≤ 24 h
